Here are results for seven molecules from PubChem BioAssay AID248 (DTP/NCI, 2004).

Molecules are shown by their SMILES. Several values for one entry are separate records, joined by “and”; a condition that tells them apart may be missing. Identical values can stand only once. Toxic doses and inconclusive results are not listed.

The subject of the experiment is L1210 leukemia ip in BDF1 mice, survival T/C. In words: NCI In Vivo Anticancer Drug Screen. Data for tumor model L1210 Leukemia (intraperitoneal) in B6D2F1 (BDF1) mice. The note with it: endpoint: mean survival time, higher = longer survival. Summed up:
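Mice bearing the transplanted tumor received compound or vehicle. Survival of the treated group was divided by that of the vehicle-treated control group to give the ratio.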

Where [1] appears, read: dose: 50.0 mg/kg/injection, schedule: Q01DX009 (ip), vehicle: saline with Tween-80.
[2] abbreviates: dose: 100.0 mg/kg/injection, schedule: Q01DX009 (ip), vehicle: saline with Tween-80.
[3] abbreviates: dose: 200.0 mg/kg/injection, schedule: Q01DX009 (ip), vehicle: saline with Tween-80.

As for `Nc1nc(N)c2cc(CNc3ccc(C(=O)NC(CC(=O)O)C(=O)O)cc3)ccc2n1` (stereo not drawn), the T/C runs as follows: (dose: 0.07 mg/kg/injection, schedule: Q01DX009 (ip), vehicle: saline) 97 % of control and 100 % of control; (dose: 0.14 mg/kg/injection, schedule: Q01DX009 (ip), vehicle: saline) 110 % of control and 120 % of control; (dose: 0.25 mg/kg/injection, schedule: Q01DX009 (sc), vehicle: saline) 110 % of control; (dose: 0.5 mg/kg/injection, schedule: Q01DX009 (sc), vehicle: saline) 120 % of control; (dose: 0.56 mg/kg/injection, schedule: Q01DX009 (ip), vehicle: saline) 164 % of control; (dose: 0.67 mg/kg/injection, schedule: Q01DX009 (ip), vehicle: saline) 157 % of control and 189 % of control. Also, the T/C runs as follows: (dose: 1.0 mg/kg/injection, schedule: Q01DX009 (ip), vehicle: saline) 178 % of control; (dose: 1.0 mg/kg/injection, schedule: Q01DX009 (sc), vehicle: saline) 158 % of control; (dose: 1.13 mg/kg/injection, schedule: Q01DX009 (ip), vehicle: saline) 153 % of control and 193 % of control and 195 % of control; (dose: 1.25 mg/kg/injection, schedule: Q01DX009 (ip), vehicle: saline) 173 % of control and 177 % of control; (dose: 2.0 mg/kg/injection, schedule: Q01DX001 (ip), vehicle: saline) 118 % of control; (dose: 2.0 mg/kg/injection, schedule: Q01DX001 (iv), vehicle: saline) 117 % of control. Also, the T/C by setting is: (dose: 2.0 mg/kg/injection, schedule: Q01DX001 (sc), vehicle: saline) 112 % of control; (dose: 2.0 mg/kg/injection, schedule: Q01DX009 (ip), vehicle: saline) 154 % of control; (dose: 2.0 mg/kg/injection, schedule: Q01DX009 (oral), vehicle: saline) 110 % of control; (dose: 2.0 mg/kg/injection, schedule: Q01DX009 (sc), vehicle: saline) 188 % of control; (dose: 2.0 mg/kg/injection, schedule: Q08DX002 (ip), vehicle: saline) 118 % of control; (dose: 2.0 mg/kg/injection, schedule: Q## X008 (ip), vehicle: saline) 123 % of control. Besides, the T/C was 154 % of control (dose: 2.0 mg/kg/injection, schedule: Q## X024 (ip), vehicle: saline); 174 % of control and 177 % of control (dose: 2.25 mg/kg/injection, schedule: Q01DX009 (ip), vehicle: saline); 119 % of control (dose: 4.0 mg/kg/injection, schedule: Q01DX001 (ip), vehicle: saline); 119 % of control (dose: 4.0 mg/kg/injection, schedule: Q01DX001 (iv), vehicle: saline); 119 % of control (dose: 4.0 mg/kg/injection, schedule: Q01DX001 (sc), vehicle: saline); 110 % of control (dose: 4.0 mg/kg/injection, schedule: Q01DX009 (oral), vehicle: saline). Further, the T/C is 120 % of control (dose: 4.0 mg/kg/injection, schedule: Q01DX009 (sc), vehicle: saline); 152 % of control (dose: 4.0 mg/kg/injection, schedule: Q## X003 (ip), vehicle: saline); 185 % of control (dose: 4.0 mg/kg/injection, schedule: Q## X024 (ip), vehicle: saline); 95 % of control and 117 % of control (dose: 4.5 mg/kg/injection, schedule: Q01DX009 (ip), vehicle: saline); 96 % of control and 101 % of control and 91 % of control (dose: 5.0 mg/kg/injection, schedule: Q01DX009 (ip), vehicle: saline); 123 % of control (dose: 8.0 mg/kg/injection, schedule: Q01DX001 (ip), vehicle: saline). Besides, the T/C (dose: 8.0 mg/kg/injection, schedule: Q01DX001 (iv), vehicle: saline) is 118 % of control; the T/C (dose: 8.0 mg/kg/injection, schedule: Q01DX009 (oral), vehicle: saline) was 109 % of control; the T/C (dose: 8.0 mg/kg/injection, schedule: Q03HX016 (ip), vehicle: saline) is 150 % of control; the T/C (dose: 8.0 mg/kg/injection, schedule: Q## X003 (ip), vehicle: saline) was 158 % of control; the T/C (dose: 8.0 mg/kg/injection, schedule: Q## X024 (ip), vehicle: saline) is 194 % of control; the T/C (dose: 9.0 mg/kg/injection, schedule: Q01DX009 (ip), vehicle: saline) was 87 % of control and 89 % of control. In addition, the T/C (dose: 10.0 mg/kg/injection, schedule: Q01DX009 (ip), vehicle: saline) is 89 % of control and 91 % of control; the T/C (dose: 16.0 mg/kg/injection, schedule: Q01DX001 (iv), vehicle: saline) is 122 % of control; the T/C (dose: 16.0 mg/kg/injection, schedule: Q01DX001 (oral), vehicle: saline) was 102 % of control; the T/C (dose: 16.0 mg/kg/injection, schedule: Q01DX009 (oral), vehicle: saline) is 112 % of control; the T/C (dose: 16.0 mg/kg/injection, schedule: Q03HX016 (ip), vehicle: saline) was 165 % of control; the T/C (dose: 16.0 mg/kg/injection, schedule: Q08DX002 (ip), vehicle: saline) is 169 % of control. The T/C (dose: 16.0 mg/kg/injection, schedule: Q## X024 (ip), vehicle: saline) was 206 % of control; the T/C (dose: 20.0 mg/kg/injection, schedule: Q01DX001 (ip), vehicle: saline) was 108 % of control; the T/C (dose: 32.0 mg/kg/injection, schedule: Q01DX001 (ip), vehicle: saline) was 152 % of control; the T/C (dose: 32.0 mg/kg/injection, schedule: Q01DX001 (oral), vehicle: saline) was 103 % of control; the T/C (dose: 32.0 mg/kg/injection, schedule: Q03HX016 (ip), vehicle: saline) is 197 % of control; the T/C (dose: 32.0 mg/kg/injection, schedule: Q08DX002 (ip), vehicle: saline) is 159 % of control. The T/C by setting is: (dose: 32.0 mg/kg/injection, schedule: Q## X008 (ip), vehicle: saline) 150 % of control; (dose: 64.0 mg/kg/injection, schedule: Q01DX001 (oral), vehicle: saline) 101 % of control; (dose: 128.0 mg/kg/injection, schedule: Q01DX001 (oral), vehicle: saline) 101 % of control.

Take `CC(=O)OCC(C)(C)COS(=O)(=O)c1ccc(Br)cc1`: the T/C reads like this: under setting [1], 100 % of control; under setting [2], 89 % of control; under setting [3], 89 % of control.

For the molecule `CC1(C)N=C(N)N=C(N)N1c1ccc(/C=C/C(=O)Nc2ccc(S(=O)(=O)F)cc2)cc1`, the T/C is, setting by setting: (dose: 75.0 mg/kg/injection, schedule: Q01DX001 (ip), vehicle: Klucel (hydroxypropylcellulose) (HPC)) 97 % of control; (dose: 150.0 mg/kg/injection, schedule: Q01DX001 (ip), vehicle: Klucel (hydroxypropylcellulose) (HPC)) 92 % of control.

In the case of `O=C(Nc1nccs1)Nc1ccc(Cl)cc1Cl`, the T/C was 91 % of control under setting [1], 98 % of control under setting [2] and 109 % of control under setting [3].

`OCC1OC(O)C(O)C(O)C1O` (stereo not drawn): the T/C reads like this: (dose: 100.0 mg/kg/injection, schedule: Q01DX009 (ip), vehicle: saline) 96 % of control; (dose: 200.0 mg/kg/injection, schedule: Q01DX009 (ip), vehicle: saline) 98 % of control; (dose: 400.0 mg/kg/injection, schedule: Q01DX009 (ip), vehicle: saline) 107 % of control; (dose: 500.0 mg/kg/injection, schedule: Q01DX009 (ip), vehicle: saline) 93 % of control; (dose: 500.0 mg/kg/injection, schedule: Q04DX003 (ip), vehicle: saline) 96 % of control; (dose: 1000.0 mg/kg/injection, schedule: Q01DX009 (ip), vehicle: saline) 90 % of control. The T/C is, setting by setting: (dose: 1000.0 mg/kg/injection, schedule: Q04DX003 (ip), vehicle: saline) 96 % of control; (dose: 2000.0 mg/kg/injection, schedule: Q01DX009 (ip), vehicle: saline) 106 % of control; (dose: 2000.0 mg/kg/injection, schedule: Q04DX003 (ip), vehicle: saline) 93 % of control; (dose: 4000.0 mg/kg/injection, schedule: Q01DX009 (ip), vehicle: saline) 102 % of control; (dose: 4000.0 mg/kg/injection, schedule: Q04DX003 (ip), vehicle: saline) 94 % of control.

As for `O=C(O/N=C(\C(=O)c1ccccc1)c1ccccc1)c1ccc(Br)cc1`, the T/C runs as follows: under setting [1], 97 % of control; under setting [2], 92 % of control; (dose: 100.0 mg/kg/injection, schedule: Q04DX003 (ip), vehicle: saline with Tween-80) 94 % of control; under setting [3], 89 % of control; (dose: 200.0 mg/kg/injection, schedule: Q04DX003 (ip), vehicle: saline with Tween-80) 87 % of control.

As for `CCOc1ccccc1/C=N\NC(=O)c1ccco1`, the T/C by setting is: (dose: 100.0 mg/kg/injection, schedule: Q01DX001 (ip), vehicle: carboxymethylcellulose (CMC)) 106 % of control; (dose: 200.0 mg/kg/injection, schedule: Q01DX001 (ip), vehicle: carboxymethylcellulose (CMC)) 95 % of control; (dose: 400.0 mg/kg/injection, schedule: Q01DX001 (ip), vehicle: carboxymethylcellulose (CMC)) 104 % of control.
